From patent publication US8076329B2, “Histamine H3-receptor ligands and their therapeutic applications” (Bioprojet, priority 2005, dated 2011) come the findings set out here.

Where a name gives a salt, the structure may show the parent alone. Bounds are passed on as bounds.

Data set [1] has as its target CYP3A4 (Homo sapiens, UniProt P08684). The data set can be described thus: Cytochrome inhibition, fluorometric microtiter plate assay. The note with it: CYP3A4 cytochrome inhibition (IC50, concentrations in μM for 50% inhibition), human recombinant CYP3A4, substrate BFC; compounds of the invention. It counts as in vitro ADME. Here is the method:
(§1) The ability of drug in human to inhibit the catalytic activity of cytochrome P-450 isoforms was assayed using microtiter plate-based, fluorometric assays for the activities of the five human major CYP forms. Inhibition potential was determined in vitro after incubation of fluorescent model substrates over various incubation time with human recombinant cytochrome isoforms in the absence or in presence of increasing concentrations of test molecules (from 1 nM to 100 μM), in comparison with specific CYP isoform inhibitors.
(§2) Incubation of drug was carried out at 37° C.±0.5° C. under agitation in the presence of human recombinant cytochrome P-450 isoforms and a NADPH generating system. The incubation conditions for each cytochrome isoform were as follows: […]

Data set [2] concerns the target CYP2D6 (Homo sapiens, UniProt P10635). The description is as above. The note with it: CYP2D6 cytochrome inhibition (IC50, concentrations in μM for 50% inhibition), human recombinant CYP2D6, substrate AMMC; compounds of the invention. The class given is in vitro ADME. The protocol: as §1, §2
Data set [3] addresses human histamine H3 receptors (Homo sapiens, UniProt Q9Y5N1). The data set is described as follows: H3 binding ([125I]iodoproxyfan displacement on membranes). The following applies: compounds of the invention; membranes expressing human H3 receptors. The protocol:
Membranes expressing human histamine H3 receptors were incubated 1 hour at room temperature in binding buffer containing 50 mM Na2HPO4/KH2PO4 pH 7.5 in a final volume of 200 μl. […] The reaction was stopped by rapid filtration through GF/B filters (pre-soaked for 2 hours with 0.3% polyethyleneimine) followed by 3 ice cold binding buffer washes. The filter-bound radioactivity was measured in a liquid scintillation counter with 50 μl of scintillation fluid.

Chain of CYP2D6 (P10635 whole entry): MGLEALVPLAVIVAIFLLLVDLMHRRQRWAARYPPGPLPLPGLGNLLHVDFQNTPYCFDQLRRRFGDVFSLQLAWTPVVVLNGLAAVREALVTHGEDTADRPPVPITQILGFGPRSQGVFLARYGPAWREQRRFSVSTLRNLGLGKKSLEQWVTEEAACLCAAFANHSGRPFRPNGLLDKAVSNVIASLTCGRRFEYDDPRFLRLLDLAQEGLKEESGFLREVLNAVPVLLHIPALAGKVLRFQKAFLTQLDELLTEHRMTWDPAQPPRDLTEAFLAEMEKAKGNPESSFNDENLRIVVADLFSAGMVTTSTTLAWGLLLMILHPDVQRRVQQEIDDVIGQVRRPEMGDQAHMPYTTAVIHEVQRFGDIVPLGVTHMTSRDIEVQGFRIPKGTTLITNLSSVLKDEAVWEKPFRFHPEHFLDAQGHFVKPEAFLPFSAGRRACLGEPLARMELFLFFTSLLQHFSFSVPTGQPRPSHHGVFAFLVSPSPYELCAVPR
Chain of CYP3A4 (P08684 whole entry, canonical isoform): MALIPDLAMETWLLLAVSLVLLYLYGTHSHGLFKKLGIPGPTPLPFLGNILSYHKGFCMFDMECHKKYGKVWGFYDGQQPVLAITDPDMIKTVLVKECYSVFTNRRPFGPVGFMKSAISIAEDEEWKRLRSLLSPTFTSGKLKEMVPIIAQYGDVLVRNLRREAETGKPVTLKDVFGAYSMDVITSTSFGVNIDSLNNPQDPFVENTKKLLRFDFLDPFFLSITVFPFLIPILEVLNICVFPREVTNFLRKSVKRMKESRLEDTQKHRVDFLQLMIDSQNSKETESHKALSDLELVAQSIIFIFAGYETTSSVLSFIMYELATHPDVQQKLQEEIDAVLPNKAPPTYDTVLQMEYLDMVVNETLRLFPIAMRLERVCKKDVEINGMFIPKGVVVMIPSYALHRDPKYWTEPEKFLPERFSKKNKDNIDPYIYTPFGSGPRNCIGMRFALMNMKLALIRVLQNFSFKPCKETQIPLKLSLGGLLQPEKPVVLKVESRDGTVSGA
Chain of human histamine H3 receptors (Q9Y5N1 whole entry): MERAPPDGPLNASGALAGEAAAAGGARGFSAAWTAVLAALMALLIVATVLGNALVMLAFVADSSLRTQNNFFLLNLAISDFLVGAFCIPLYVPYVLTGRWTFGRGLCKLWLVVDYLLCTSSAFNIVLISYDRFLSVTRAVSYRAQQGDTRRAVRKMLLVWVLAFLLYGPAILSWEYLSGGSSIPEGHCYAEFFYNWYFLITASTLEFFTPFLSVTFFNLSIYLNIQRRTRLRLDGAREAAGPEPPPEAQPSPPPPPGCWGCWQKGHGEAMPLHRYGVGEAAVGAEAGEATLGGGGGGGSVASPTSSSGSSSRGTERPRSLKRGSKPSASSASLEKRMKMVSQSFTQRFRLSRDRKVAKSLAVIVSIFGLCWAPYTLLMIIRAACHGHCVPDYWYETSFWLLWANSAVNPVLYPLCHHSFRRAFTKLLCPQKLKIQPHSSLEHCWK

On to `c1cc(-c2ccc(OCCCN3CCCCC3)cc2)ccc1CN1CCCCC1` [Example 42, 1-(3-{[4′-(piperidinomethyl)biphenyl-4-yl]oxy}propyl)piperidine], for which the melting point (usually the temperature, or range, at which the solid turns liquid) is 90 °C. For the same molecule, in data set [1], the IC50 (in general, the concentration that gives 50% inhibition) was greater than 10 µM. Further, the IC50 in data set [2] was greater than 10 µM.
`Cc1cc(-c2ccc(OCCCN3CCC[C@H](C)C3)cc2)ccn1.O=C(O)C(=O)O.O=C(O)C(=O)O` [Example 59, 2-methyl-4-(4-{3-[(3S)-3-methylpiperidin-1-yl]propoxy}phenyl)pyridine]: the melting point turned out to be 97 °C. Besides, in data set [1], the IC50 is greater than 10 µM. Moreover, in data set [2], the IC50 was greater than 10 µM.
`C(#Cc1ccc(OCCCN2CCCCC2)cc1)CCN1CCCCC1.O=C(O)C(=O)O.O=C(O)C(=O)O` [Example 43, 1-{3-[4-(4-Piperidinobut-1-yn-1-yl)phenoxy]propyl}piperidine] displayed a melting point of 167 °C. Further, the IC50 in data set [1] is greater than 10 µM. Also, the IC50 in data set [2] was greater than 1 µM.
As for `Cc1ccc(-c2ccc(OCCCN3CCCCC3)cc2)cc1.O=C(O)C(=O)O` [Example 24, 1-{3-[(4′-methylbiphenyl-4-yl)oxy]propyl}piperidine], the melting point was found to be 195 °C. Moreover, the inhibition constant (Ki) (as a rule, a dissociation constant, usually derived from enzyme kinetics or from competition with a known ligand) in data set [3] is 0.0035 µM. In addition, the IC50 in data set [1] is greater than 10 µM. The IC50 in data set [2] is greater than 10 µM.
In turn, `c1cc(-c2ccc(OCCCN3CCCC3)cc2)ccc1OCCCN1CCCCC1` [Example 37, 1-(3-{[4′-(3-piperidinopropoxy)biphenyl-4-yl]oxy}propyl)pyrrolidine] came in with a melting point of 105 to 108 °C. For the same molecule, the IC50 in data set [1] amounted to 15 µM. Moreover, in data set [2], the IC50 is greater than 10 µM.
As for `C[C@H]1CCCN(CCCOc2ccc(-c3ccnc(Cl)c3)cc2)C1.O=C(O)C(=O)O.O=C(O)C(=O)O` [Example 56, 2-chloro-4-(4-{3-[(3S)-3-methylpiperidin-1-yl]propoxy}phenyl)pyridine], the melting point worked out at 143 °C. Besides, the IC50 in data set [1] is greater than 1 µM. Moreover, in data set [2], the IC50 was greater than 10 µM.
In turn, `CC1CCCN1CCCOc1ccc([C@H]2CC[C@H](O)CC2)cc1` (stereo partly drawn) (as salt: oxalate) [Example 66, 1-{3-[trans-4-(4-hydroxycyclohexyl)phenoxy]propyl}-2-methylpyrrolidine] showed a melting point of 80 °C.
As to `C[C@H]1CCCN(CCCOc2ccc(-c3ccnc(O)c3)cc2)C1.O=C(O)C(=O)O` [Example 55, 2-hydroxy-4-(4-{3-[(3S)-3-methylpiperidin-1-yl]propoxy}phenyl)pyridine], the melting point is 110 °C. Moreover, the IC50 in data set [1] is greater than 10 µM. In addition, the IC50 in data set [2] was greater than 10 µM.
`c1cc(-c2ccc(OCCCN3CCCCC3)cc2)ccc1CCCN1CCCCC1` (as salt: oxalate) [Example 48] displayed a melting point of 130 °C.
On the same count and under the same terms, next, `C[C@H]1C[C@H](C)CN(CCCOc2ccc([C@H]3CC[C@H](N(C)C)CC3)cc2)C1` (as salt: hydrochloride) [Example 12, (3S,5S)-1-{3-[4-(trans-4-dimethylaminocyclohex-1-yl)phenoxy]propyl}-3,5-dimethylpiperidine]: 240 °C.
Take `c1cncc(-c2ccc(OCCCN3CCCCC3)cc2)c1` [Example 32, 1-{3-[4-(3-pyridyl)phenoxy]propyl}piperidine]: affinity in data set [3] was put at a Ki of 0.00022 µM. In addition, the 50% inhibitory concentration (IC50) amounted to 9 µM in data set [1] and 7 µM in data set [2].
Molecule `O=C(O)C(=O)O.O=C(O)C(=O)O.c1cc(C2=NCCCC2)ccc1OCCCN1CCCCC1` [Example 15, 6-[4-(3-piperidinopropoxy)phenyl]-2,3,4,5-tetrahydropyridine] displayed a melting point of 104 °C. The IC50 in data set [1] stood at 46 µM. For the same molecule, the IC50 in data set [2] is greater than 10 µM.
